Values belong to the molecule of their own block, whether it stands above or below them.
What was measured:
[1] = target: T1, Aedes aegypti mevalonate kinase (AaMVK) (Aedes aegypti, UniProt Q176C1); assay: PK/LDH-coupled spectrophotometric kinase assay, Ki from varied ATP and inhibitor; assay type: biochemical
T1 construct: gene 5567998; recombinant His-tagged full-length AaMVK (397 aa) expressed in E. coli
T1 sequence (Q176C1 1-397): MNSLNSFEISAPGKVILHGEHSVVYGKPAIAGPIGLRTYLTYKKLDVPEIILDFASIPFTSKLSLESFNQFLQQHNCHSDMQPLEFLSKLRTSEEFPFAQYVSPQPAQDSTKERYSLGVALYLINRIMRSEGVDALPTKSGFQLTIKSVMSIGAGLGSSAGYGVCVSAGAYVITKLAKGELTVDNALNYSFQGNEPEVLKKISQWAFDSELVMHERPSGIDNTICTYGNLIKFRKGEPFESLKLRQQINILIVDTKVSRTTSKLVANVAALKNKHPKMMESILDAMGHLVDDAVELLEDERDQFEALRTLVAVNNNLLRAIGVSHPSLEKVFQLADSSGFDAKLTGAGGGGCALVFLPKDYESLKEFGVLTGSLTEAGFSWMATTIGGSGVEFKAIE

purified protein = substrate: C[C@@](O)(CCO)CC(=O)O; assay: purified protein; conditions: Mg2+
[2] = substrate: Nc1ncnc2c1ncn2[C@@H]1O[C@H](COP(=O)(O)OP(=O)(O)OP(=O)(O)O)[C@@H](O)[C@H]1O; assay: Michaelis-Menten kinetics, PK/LDH-coupled assay (Km); assay type: biochemical, Aedes aegypti; conditions: Mg2+

Ki [1]: 440 ± 200 nM
Molecule: CC(C)=CCC/C(C)=C/CC/C(C)=C/CO[P@@](=O)(O)OP(=O)(O)O (stereo in doubt) [FPP, farnesyl diphosphate]

Ki [1]: 930 ± 190 nM
Molecule: CC(C)=CCC/C(C)=C/CC/C(C)=C/CC/C(C)=C/COP(=O)(O)OP(=O)(O)O [GGPP, geranyl-geranyl pyrophosphate]

Ki [1]: 550 ± 280 nM
Molecule: CC(C)=CCC/C(C)=C/COP(=O)(O)OP(=O)(O)O [GPP, geranyl diphosphate]

B1: Aedes aegypti mevalonate kinase (AaMVK) (Aedes aegypti) (protein)
chain: T1 sequence (Q176C1 1-397)
notes: recombinant His-tagged full-length AaMVK (397 aa) expressed in E. coli
Km (purified protein): 90 ± 18 µM
Km [2]: 140 ± 28 µM
